Here are results for eleven compounds from ChEMBL document CHEMBL1201862, “PubChem BioAssay data set” (2004).

Molecules are shown by their SMILES.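 Following 48 hours of exposure in 96-well plates, responses at five concentrations were used to interpolate endpoints linearly. GI50 marks 50% less growth.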 Calls of active or inactive are those of the source. No stated cut-off is given here; in the data, active = GI50 up to about 1.1 µM and inactive = higher.

Some test systems named below: SK-MEL-5; MDA-MB-231; M14; RPMI-8226; SN12C; HT-29; PC-3; NCI-H460; SK-MEL-2; SR; SF-268; SK-OV-3; T47D; HCT-15; UACC-257; COLO 205; A549; MCF7; OVCAR-4; TK-10.
Holding throughout (assay): NCI tumour cell line growth inhibition, 48 h

Take `CCCC[C@@H]1CCN2C[C@@H](O)[C@@H](O)[C@@H]2[C@H]1O`: the GI50 in the test on SK-MEL-5, in the test with MDA-MB-231, in the test with M14, in the test on RPMI-8226, with SN12C and in the test with HT-29 was > 100 µM (inactive) each time. Besides, the GI50 with PC-3, with NCI-H460, in the test with SK-MEL-2, in the test on SR, in the test with SF-268 and in the test on SK-OV-3 was > 100 µM (inactive) each time. The GI50 in the test with T47D is > 100 µM (inactive); with HCT-15, > 100 µM; in the test on UACC-257, > 100 µM (inactive); in the test with COLO 205 it was > 100 µM (inactive); in the test on A549, > 100 µM (inactive); with MCF7, > 100 µM (inactive). For the same compound, the GI50 in the test with OVCAR-4 was > 100 µM (inactive).

For the compound `O=C(O)c1nc2ccccc2nc1NCc1ccc(F)cc1`, the GI50 with SK-MEL-5 was 35.8 µM (inactive); in the test on TK-10, > 100 µM (inactive); in the test on MDA-MB-231 it was 68.7 µM (inactive); in the test with M14, > 100 µM (inactive); in the test with RPMI-8226, 60.4 µM (inactive); in the test with SN12C, > 100 µM (inactive). Also, the GI50 with HT-29 was 69.5 µM (inactive); with PC-3, > 100 µM (inactive); with NCI-H460, 60.7 µM (inactive); in the test on SK-MEL-2 it was 94.4 µM (inactive); with SR, 42.4 µM (inactive); with SF-268, 57 µM (inactive). The GI50 with T47D is 40.9 µM (inactive); with HCT-15 it was 16.6 µM; in the test with UACC-257 it was > 100 µM (inactive); in the test with COLO 205 it was 31.9 µM (inactive); in the test on A549, 57.7 µM (inactive); in the test with MCF7, 86.5 µM (inactive).

Consider `CN(C)c1ccc(/C=C2\Oc3cc(O)ccc3C2=O)cc1`, for which the GI50 is 80.7 µM (inactive) in the test on SK-MEL-5; > 100 µM (inactive) in the test with TK-10; 53.1 µM (inactive) in the test with MDA-MB-231; 75.7 µM (inactive) with M14; 74.1 µM (inactive) in the test on RPMI-8226; 62.4 µM (inactive) with SN12C. For the same compound, the GI50 with PC-3 was > 100 µM (inactive); with NCI-H460 it was 80.5 µM (inactive); in the test on SR, 52 µM (inactive); in the test with SF-268, > 100 µM (inactive); with SK-OV-3, > 100 µM (inactive); in the test on T47D, > 100 µM (inactive). For the same compound, the GI50 in the test on HCT-15 is 44.9 µM; with UACC-257, > 100 µM (inactive); in the test with COLO 205, > 100 µM (inactive); in the test with A549 it was 88.1 µM (inactive); with MCF7 it was 80.9 µM (inactive); in the test on OVCAR-4, > 100 µM (inactive).

With `O=c1[nH]nc(-c2ccccc2)n1/N=C\c1ccccc1`, the GI50 with SK-MEL-5, with TK-10, in the test with MDA-MB-231, with RPMI-8226, with SN12C and in the test on HT-29 was > 100 µM (inactive) in each case. Also, the GI50 in the test with PC-3 is > 100 µM (inactive); in the test with NCI-H460, > 100 µM (inactive); with SK-MEL-2, > 100 µM (inactive); in the test with SR, > 100 µM (inactive); in the test on SF-268 it was 31 µM (inactive); in the test on T47D it was > 100 µM (inactive). Also, the GI50 in the test with HCT-15 was > 100 µM; in the test with UACC-257, > 100 µM (inactive); in the test on COLO 205 it was > 100 µM (inactive); with A549 it was > 100 µM (inactive); with MCF7, > 100 µM (inactive); with OVCAR-4 it was > 100 µM (inactive).

Turning to `COc1cc([C@@H]2c3cc4c(c(O)c3C[C@H]3COC(=O)[C@@H]32)OCO4)cc(OC)c1OC` [BETA-PELTATIN A], the GI50 in the test on TK-10 is 31.6 µM (inactive); in the test on MDA-MB-231, 0.00596 µM (active); with M14, 0.0241 µM (active); in the test with RPMI-8226 it was 0.015 µM (active); with SN12C it was 0.015 µM (active); in the test on PC-3 it was 0.0241 µM (active). The GI50 with NCI-H460 is 0.0254 µM (active); with SK-MEL-2, 0.015 µM (active); in the test with SR, 109 µM (inactive); in the test on SF-268 it was 0.015 µM (active); with T47D, 51.9 µM (inactive); in the test on HCT-15, 0.015 µM. Moreover, the GI50 is 0.0238 µM (active) in the test on COLO 205, 0.015 µM (active) with A549, 0.015 µM (active) in the test with MCF7 and 0.0627 µM (active) in the test on OVCAR-4.

For the compound `Cc1cc(-c2nc3cccc(O)c3s2)ccc1N`, the GI50 was 19.3 µM (inactive) with SK-MEL-5; 33.6 µM (inactive) in the test on TK-10; 31.3 µM (inactive) with MDA-MB-231; 16.2 µM (inactive) with M14; 45.2 µM (inactive) with RPMI-8226; 39.9 µM (inactive) in the test on SN12C. For the same compound, the GI50 was 36.3 µM (inactive) in the test on HT-29; 27.7 µM (inactive) in the test with PC-3; 29.1 µM (inactive) with NCI-H460; 34.7 µM (inactive) with SK-MEL-2; 40.8 µM (inactive) in the test on SR; 17.6 µM (inactive) in the test with SF-268. In addition, the GI50 is 52.8 µM (inactive) in the test with SK-OV-3; 62.5 µM (inactive) in the test on T47D; 35 µM with HCT-15; 37.2 µM (inactive) with UACC-257; 24.2 µM (inactive) in the test with COLO 205; 15.7 µM (inactive) in the test with A549. Further, the GI50 in the test with MCF7 is 12.5 µM (inactive).

With `COc1cccc(C2c3cc4c(cc3OC(O)C2C)OCO4)c1OC` (centres undefined), the GI50 in the test on SK-MEL-5 was 7.14 µM (inactive); with TK-10, 7.4 µM (inactive); with MDA-MB-231 it was 14.2 µM (inactive); with M14, 11.1 µM (inactive); with RPMI-8226, 2.13 µM (inactive); with SN12C, 4.78 µM (inactive). Moreover, the GI50 in the test on HT-29 was 3.66 µM (inactive); with PC-3, 4.49 µM (inactive); in the test on NCI-H460, 3.71 µM (inactive); with SK-MEL-2, 5.2 µM (inactive); in the test with SR, 2.48 µM (inactive); in the test with SF-268, 7.36 µM (inactive). Further, the GI50 with T47D is 3.36 µM (inactive); in the test with HCT-15, 2.1 µM; in the test with UACC-257, 7.18 µM (inactive); in the test with COLO 205, 6.11 µM (inactive); in the test with A549, 4.02 µM (inactive); in the test on MCF7, 5.28 µM (inactive).

For `Nn1c(Cc2ccc([N+](=O)[O-])cc2)n[nH]c1=O`, the GI50 with SK-MEL-5, in the test on MDA-MB-231, in the test on M14, in the test on RPMI-8226, in the test with SN12C and with HT-29 was > 100 µM (inactive) throughout. In addition, the GI50 in the test with PC-3, in the test with NCI-H460, in the test on SK-MEL-2, with SR, with SF-268 and in the test with SK-OV-3 was > 100 µM (inactive) each time. Further, the GI50 with T47D was > 100 µM (inactive); in the test on HCT-15, > 100 µM; in the test with UACC-257, > 100 µM (inactive); with COLO 205 it was > 100 µM (inactive); in the test with A549, > 100 µM (inactive); with MCF7, > 100 µM (inactive). Further, the GI50 in the test on OVCAR-4 is > 100 µM (inactive).

In the case of `Cc1nc2ccc(NC(=S)Nc3ccccc3)cc2c(=O)n1-c1ccccc1`, the GI50 was 51.3 µM (inactive) in the test on SK-MEL-5; > 100 µM (inactive) in the test with TK-10; > 100 µM (inactive) in the test with MDA-MB-231; 23.6 µM (inactive) with RPMI-8226; > 100 µM (inactive) in the test with SN12C; > 100 µM (inactive) with HT-29. Moreover, the GI50 was > 100 µM (inactive) in the test on PC-3; 24.2 µM (inactive) with NCI-H460; 16.6 µM (inactive) with SK-MEL-2; > 100 µM (inactive) with SR; > 100 µM (inactive) in the test on SF-268; > 100 µM (inactive) in the test on T47D. For the same compound, the GI50 with HCT-15 is > 100 µM; with UACC-257, > 100 µM (inactive); with COLO 205, 80.4 µM (inactive); with MCF7, > 100 µM (inactive); with OVCAR-4 it was > 100 µM (inactive).

As to `Nc1ccc2c(c1)CN1C(=O)c3ccccc3C1=N2` [DANIQUIDONE], the GI50 is 16.8 µM (inactive) in the test with SK-MEL-5; 36.4 µM (inactive) in the test with TK-10; 31.6 µM (inactive) in the test with MDA-MB-231; 104 µM (inactive) in the test on M14; 74.6 µM (inactive) with RPMI-8226; 33.3 µM (inactive) in the test on SN12C. Further, the GI50 was 69.3 µM (inactive) with HT-29; 58.1 µM (inactive) with PC-3; 15.5 µM (inactive) in the test with NCI-H460; > 79.8 µM (inactive) in the test with SK-MEL-2; 18.7 µM (inactive) with SR; 29 µM (inactive) in the test on SF-268. Besides, the GI50 was 52.5 µM (inactive) with T47D; 34.8 µM in the test with HCT-15; 96.6 µM (inactive) in the test with UACC-257; 23.3 µM (inactive) in the test on COLO 205; 31 µM (inactive) in the test on A549; 39.5 µM (inactive) in the test on MCF7. Also, in the test on OVCAR-4, the GI50 was 91.8 µM (inactive).

Take `C/C=C/C=C/c1nc(C#N)c(N)o1`: the GI50 with TK-10, with MDA-MB-231, in the test with M14, in the test on RPMI-8226, in the test with SN12C and in the test with HT-29 was > 100 µM (inactive) in each case. For the same compound, the GI50 was 36.6 µM (inactive) in the test on PC-3; > 100 µM (inactive) in the test on SK-MEL-2; > 100 µM (inactive) with SR; > 100 µM (inactive) in the test with SF-268; > 100 µM (inactive) with SK-OV-3; > 100 µM (inactive) in the test with T47D. For the same compound, the GI50 was > 100 µM in the test on HCT-15; > 100 µM (inactive) in the test on UACC-257; > 100 µM (inactive) in the test on COLO 205; 99.3 µM (inactive) in the test with A549; > 100 µM (inactive) with MCF7; > 100 µM (inactive) in the test on OVCAR-4.
